Laboratory results published in ChEMBL document CHEMBL1201862, “PubChem BioAssay data set” (2004).
Calls of active or inactive are those of the source.

What was measured:
[1] = NIH3T3 cell viability loss – ATP luminescence, mouse fibroblasts, counter-screen, dose response (AID 2010); format: functional, cell-based;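 note: cells exposed to compound for about 90 hours before reading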
[2] = Trypanosoma cruzi growth suppression in host cells – NIH3T3 host cells, beta-gal luminescence, confirmation (AID 2044); format: functional, cell-based;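 note: intracellular parasites grown in NIH/3T3 mouse fibroblasts as host cells; luminescent beta-galactosidase reporter signal from transgenic T. cruzi replicating inside host cells; inhibitors lower the luminescence signal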
[3] = T. cruzi infection blockers in NIH3T3 cells – beta-gal luminescence, NIH3T3 host cells, confirmation (AID 2630); format: functional, cell-based; settings: Mus musculus
[4] = Luminescence Cell-Based Secondary HTS screen to identify cytotoxic compounds of NIH3T3 cells. [Related pubchem assays: 1885, 1968 ]; format: functional
cells = format: functional
[5] = Luminescence Cell-Based/Microorganism Confirmation at Dose of Inhibitors of Trypanosoma cruzi Infection. [Related pubchem assays: 1885, 1968 ]; format: functional
[6] = molecular target: T1, Voltage-gated N-type calcium channel alpha-1B subunit/Amyloid beta A4 precursor protein-binding family A member 1 (Homo sapiens, UniProt Q00975+Q02410); format: protein assay
[7] = molecular target: T2, Short transient receptor potential channel 4 (Mus musculus, UniProt Q9QUQ5); assay: block of DAMGO-driven TRPC4 calcium entry – cell-based, HEK293 TRPC4/mu-opioid, Fluo-4 calcium, dose response (AID 434942); format: functional;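 note: potency of inhibitors blocking the TRPC4 calcium response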
T2 sequence (Q9QUQ5 whole entry): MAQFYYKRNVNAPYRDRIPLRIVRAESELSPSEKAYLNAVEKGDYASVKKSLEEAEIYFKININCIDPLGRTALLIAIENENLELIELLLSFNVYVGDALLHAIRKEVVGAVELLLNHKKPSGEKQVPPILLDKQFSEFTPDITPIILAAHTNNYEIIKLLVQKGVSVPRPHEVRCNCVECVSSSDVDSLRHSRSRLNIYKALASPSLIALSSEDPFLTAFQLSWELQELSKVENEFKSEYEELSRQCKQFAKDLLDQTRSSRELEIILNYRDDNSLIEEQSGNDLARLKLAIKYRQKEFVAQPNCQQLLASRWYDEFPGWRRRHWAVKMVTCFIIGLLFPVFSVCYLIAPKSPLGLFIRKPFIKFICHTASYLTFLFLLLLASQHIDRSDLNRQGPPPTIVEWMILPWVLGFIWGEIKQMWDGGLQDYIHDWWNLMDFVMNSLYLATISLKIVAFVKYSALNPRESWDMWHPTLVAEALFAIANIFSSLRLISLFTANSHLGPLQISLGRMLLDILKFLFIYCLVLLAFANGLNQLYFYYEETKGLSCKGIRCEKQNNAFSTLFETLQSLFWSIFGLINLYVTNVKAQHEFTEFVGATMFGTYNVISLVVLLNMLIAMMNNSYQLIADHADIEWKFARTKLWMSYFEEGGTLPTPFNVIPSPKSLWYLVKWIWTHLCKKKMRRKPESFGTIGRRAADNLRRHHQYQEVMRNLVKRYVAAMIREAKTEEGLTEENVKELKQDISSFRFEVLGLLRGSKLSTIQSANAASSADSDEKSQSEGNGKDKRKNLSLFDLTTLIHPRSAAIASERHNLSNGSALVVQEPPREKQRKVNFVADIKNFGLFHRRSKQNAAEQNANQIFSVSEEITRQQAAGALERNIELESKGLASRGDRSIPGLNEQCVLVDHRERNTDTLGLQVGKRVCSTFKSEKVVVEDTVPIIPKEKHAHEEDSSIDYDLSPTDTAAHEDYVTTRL

[8] = molecular target: T1, Voltage-gated N-type calcium channel alpha-1B subunit/Amyloid beta A4 precursor protein-binding family A member 1; format: protein assay; remark: listed apart in the source
[9] = general cell-killing toxicity readout – plate reader, dry powder samples, cytotoxicity control for PAX8 inhibitor project, dose response (AID 743021); format: functional, cell-based
[10] = molecular target: Peroxisome proliferator-activated receptor gamma/Nuclear receptor coactivator 3 (Homo sapiens, UniProt P37231); assay: (§1) TR-FRET dose response biochemical High Throughput Screening assay for agonists of the steroid receptor coactivator 3 (SRC-3) recruitment by the peroxisome proliferator-activated receptor gamma (PPAR gamma): non-selective agonists. [Related pubchem assays: 1301 (Confirmation screen.), 1048 (Primary screen.)]; format: functional
[11] = molecular target: Peroxisome proliferator-activated receptor gamma/Nuclear receptor coactivator 1 (Homo sapiens, UniProt P37231); assay: as §1, with “1 (SRC-1)” for “3 (SRC-3)”, “assays (depositor defined):AID1300, AID1808, AID504735, AID631]” for “assays: 1301 (Confirmation screen.), 1048 (Primary screen.)]”; format: protein assay
[12] = reduction of Shn3 3'UTR-driven luciferase in osteoblasts – cell-based, Clone20 osteoblasts, firefly luciferase, cherry-picked, dose response (AID 624132); format: functional;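 note: firefly luciferase luminescence from reporter carrying the Shn3 3'UTR in osteoblasts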
[13] = loss of viability in HepG2 cells – cell-based, CellTiter-Glo, cherry-picked, cytotoxicity control for Shn3 inhibitor project, dose response (AID 624134); format: functional
[14] = molecular target: Peroxisome proliferator-activated receptor gamma/Nuclear receptor coactivator 2 (Homo sapiens, UniProt P37231); assay: TR-FRET dose response biochemical High Throughput Screening assay for agonists of the steroid receptor coactivator 2 (SRC-2) recruitment by the peroxisome proliferator-activated receptor gamma (PPAR gamma): non-selective agonists. [Related pubchem assays: 1297, 1032 ]; format: functional
Paired box protein Pax-8 = Paired box protein Pax-8 (Homo sapiens, UniProt Q06710); assay: PAX8 transcriptional activity inhibition in RMG-I – RMG-I cells, luciferase, cherry-pick, dose response (AID 687027); format: functional, cell-based;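 note: luciferase reporter driven by Pax8 target thyroperoxidase promoter measured by SteadyGlo luminescence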
HeLa = assay: Cytotoxicity counterscreen assay for transcriptional activators of heat shock protein 70 (Hsp70). [Related pubchem assays: 1203, 1252 ]; format: functional; settings: Homo sapiens;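 note: cells exposed to compound for 16 hours before readout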
[15] = non-specific 3'UTR reporter inhibition in Clone20-Shn3RL – cell-based, Renilla luciferase, cherry-picked, counter-screen for Shn3 inhibitor project, dose response (AID 624133); format: functional
[16] = molecular target: Alkaline phosphatase, placental type (Homo sapiens, UniProt P05187); assay: human placental alkaline phosphatase inhibition – biochemical, luminescence, confirmation (AID 1512); format: functional
[17] = molecular target: Glyceraldehyde-3-phosphate dehydrogenase (Homo sapiens, UniProt P04406)
[18] = molecular target: T3, Alkaline phosphatase, tissue-nonspecific isozyme (Homo sapiens, UniProt P05186); assay: potency against alkaline phosphatase TNAP – biochemical, luminescent, dose response, SAR follow-up (AID 1056)
T3 sequence (P05186 whole entry): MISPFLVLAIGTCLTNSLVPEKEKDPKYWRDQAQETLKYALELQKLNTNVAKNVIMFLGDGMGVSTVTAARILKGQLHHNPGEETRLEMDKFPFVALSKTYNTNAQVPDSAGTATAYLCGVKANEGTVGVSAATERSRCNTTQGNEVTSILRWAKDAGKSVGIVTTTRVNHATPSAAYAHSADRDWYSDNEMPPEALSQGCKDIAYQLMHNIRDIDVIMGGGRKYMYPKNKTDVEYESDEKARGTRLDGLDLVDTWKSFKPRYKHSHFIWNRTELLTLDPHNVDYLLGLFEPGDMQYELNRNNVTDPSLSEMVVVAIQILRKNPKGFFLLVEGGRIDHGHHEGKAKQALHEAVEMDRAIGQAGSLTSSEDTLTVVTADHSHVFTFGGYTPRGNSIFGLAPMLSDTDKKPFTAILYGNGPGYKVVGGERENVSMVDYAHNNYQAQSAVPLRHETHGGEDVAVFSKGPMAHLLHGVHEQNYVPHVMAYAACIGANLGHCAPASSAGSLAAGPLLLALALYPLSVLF

T1 sequence (Q00975 whole entry): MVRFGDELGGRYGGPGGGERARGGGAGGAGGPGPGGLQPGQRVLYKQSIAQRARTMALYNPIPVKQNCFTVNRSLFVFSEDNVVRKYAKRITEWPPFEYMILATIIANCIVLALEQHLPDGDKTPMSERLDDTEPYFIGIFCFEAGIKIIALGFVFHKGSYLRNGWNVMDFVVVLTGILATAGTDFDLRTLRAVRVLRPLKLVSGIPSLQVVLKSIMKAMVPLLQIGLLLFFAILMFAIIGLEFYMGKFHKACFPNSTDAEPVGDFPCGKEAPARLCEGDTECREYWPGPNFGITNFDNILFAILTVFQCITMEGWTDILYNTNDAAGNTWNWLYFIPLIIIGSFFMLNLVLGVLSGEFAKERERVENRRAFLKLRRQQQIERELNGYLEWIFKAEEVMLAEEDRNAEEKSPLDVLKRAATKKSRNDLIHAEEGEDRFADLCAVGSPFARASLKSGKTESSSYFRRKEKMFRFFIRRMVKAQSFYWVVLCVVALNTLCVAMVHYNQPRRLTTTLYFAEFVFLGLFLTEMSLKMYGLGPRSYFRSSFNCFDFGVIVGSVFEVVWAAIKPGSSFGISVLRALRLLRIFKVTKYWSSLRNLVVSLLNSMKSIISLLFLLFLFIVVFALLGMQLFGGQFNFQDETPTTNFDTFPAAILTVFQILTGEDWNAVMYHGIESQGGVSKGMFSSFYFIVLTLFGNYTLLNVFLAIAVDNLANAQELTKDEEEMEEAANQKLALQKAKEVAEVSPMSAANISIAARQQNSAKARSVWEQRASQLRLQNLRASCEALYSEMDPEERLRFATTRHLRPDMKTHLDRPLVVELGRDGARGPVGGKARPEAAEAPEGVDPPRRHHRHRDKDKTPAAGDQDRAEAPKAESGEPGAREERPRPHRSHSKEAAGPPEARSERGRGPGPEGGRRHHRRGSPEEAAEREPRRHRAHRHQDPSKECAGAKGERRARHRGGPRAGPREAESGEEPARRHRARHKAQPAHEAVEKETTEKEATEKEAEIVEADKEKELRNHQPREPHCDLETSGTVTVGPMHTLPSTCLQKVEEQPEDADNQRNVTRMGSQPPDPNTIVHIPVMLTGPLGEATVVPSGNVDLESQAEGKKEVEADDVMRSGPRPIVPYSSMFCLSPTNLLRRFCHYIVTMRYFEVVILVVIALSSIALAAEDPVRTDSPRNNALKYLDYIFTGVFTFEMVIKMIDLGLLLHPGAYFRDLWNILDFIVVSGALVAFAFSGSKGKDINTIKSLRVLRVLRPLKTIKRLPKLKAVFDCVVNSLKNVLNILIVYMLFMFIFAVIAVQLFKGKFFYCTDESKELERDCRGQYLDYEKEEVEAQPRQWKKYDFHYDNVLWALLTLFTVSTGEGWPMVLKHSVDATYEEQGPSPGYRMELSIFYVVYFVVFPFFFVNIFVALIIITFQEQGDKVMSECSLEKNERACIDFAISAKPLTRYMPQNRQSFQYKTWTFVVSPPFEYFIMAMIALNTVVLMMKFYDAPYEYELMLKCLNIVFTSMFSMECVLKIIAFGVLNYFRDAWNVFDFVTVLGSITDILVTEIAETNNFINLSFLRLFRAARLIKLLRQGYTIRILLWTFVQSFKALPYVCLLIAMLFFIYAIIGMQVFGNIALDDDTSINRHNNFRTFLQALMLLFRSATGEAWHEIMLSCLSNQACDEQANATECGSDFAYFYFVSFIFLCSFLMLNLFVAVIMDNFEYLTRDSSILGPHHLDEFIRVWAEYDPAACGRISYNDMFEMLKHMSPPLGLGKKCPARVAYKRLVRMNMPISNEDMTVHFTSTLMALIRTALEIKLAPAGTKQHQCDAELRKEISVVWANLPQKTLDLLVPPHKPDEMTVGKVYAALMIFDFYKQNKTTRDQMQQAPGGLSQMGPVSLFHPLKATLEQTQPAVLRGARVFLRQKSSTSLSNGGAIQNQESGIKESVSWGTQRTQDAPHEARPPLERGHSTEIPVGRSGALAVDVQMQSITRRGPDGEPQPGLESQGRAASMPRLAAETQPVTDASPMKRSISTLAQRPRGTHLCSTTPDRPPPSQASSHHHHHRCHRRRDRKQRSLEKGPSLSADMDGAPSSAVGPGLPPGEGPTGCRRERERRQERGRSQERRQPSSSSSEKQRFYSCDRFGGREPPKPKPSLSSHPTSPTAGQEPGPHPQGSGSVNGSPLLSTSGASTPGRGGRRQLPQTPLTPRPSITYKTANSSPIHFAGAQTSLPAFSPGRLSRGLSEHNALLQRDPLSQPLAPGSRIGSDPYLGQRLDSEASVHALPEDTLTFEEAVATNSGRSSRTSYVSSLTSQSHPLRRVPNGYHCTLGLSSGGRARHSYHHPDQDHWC
T1 sequence (Q02410 whole entry): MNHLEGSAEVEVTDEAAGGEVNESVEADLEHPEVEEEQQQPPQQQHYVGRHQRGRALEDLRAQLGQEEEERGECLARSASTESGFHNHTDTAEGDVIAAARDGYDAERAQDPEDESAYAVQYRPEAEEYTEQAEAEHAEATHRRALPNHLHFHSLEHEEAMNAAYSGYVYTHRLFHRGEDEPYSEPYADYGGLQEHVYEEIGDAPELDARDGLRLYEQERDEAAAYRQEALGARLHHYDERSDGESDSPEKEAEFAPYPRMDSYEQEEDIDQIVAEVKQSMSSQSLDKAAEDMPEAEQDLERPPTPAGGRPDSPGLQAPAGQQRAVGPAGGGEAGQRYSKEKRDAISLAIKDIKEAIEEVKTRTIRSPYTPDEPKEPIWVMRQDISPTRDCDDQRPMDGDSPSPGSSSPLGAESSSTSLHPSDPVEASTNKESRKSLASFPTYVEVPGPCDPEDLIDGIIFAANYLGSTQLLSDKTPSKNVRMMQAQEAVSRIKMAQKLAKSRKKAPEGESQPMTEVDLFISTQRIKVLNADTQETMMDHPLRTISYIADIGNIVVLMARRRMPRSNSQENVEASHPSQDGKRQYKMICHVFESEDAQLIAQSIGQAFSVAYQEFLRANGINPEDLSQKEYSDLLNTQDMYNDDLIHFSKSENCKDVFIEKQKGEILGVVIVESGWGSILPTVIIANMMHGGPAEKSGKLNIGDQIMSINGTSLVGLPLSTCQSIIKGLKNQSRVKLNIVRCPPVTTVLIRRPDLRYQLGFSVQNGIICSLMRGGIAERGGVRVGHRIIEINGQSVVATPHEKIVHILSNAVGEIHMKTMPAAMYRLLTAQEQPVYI
Chain of Alkaline phosphatase, placental type (P05187 whole entry): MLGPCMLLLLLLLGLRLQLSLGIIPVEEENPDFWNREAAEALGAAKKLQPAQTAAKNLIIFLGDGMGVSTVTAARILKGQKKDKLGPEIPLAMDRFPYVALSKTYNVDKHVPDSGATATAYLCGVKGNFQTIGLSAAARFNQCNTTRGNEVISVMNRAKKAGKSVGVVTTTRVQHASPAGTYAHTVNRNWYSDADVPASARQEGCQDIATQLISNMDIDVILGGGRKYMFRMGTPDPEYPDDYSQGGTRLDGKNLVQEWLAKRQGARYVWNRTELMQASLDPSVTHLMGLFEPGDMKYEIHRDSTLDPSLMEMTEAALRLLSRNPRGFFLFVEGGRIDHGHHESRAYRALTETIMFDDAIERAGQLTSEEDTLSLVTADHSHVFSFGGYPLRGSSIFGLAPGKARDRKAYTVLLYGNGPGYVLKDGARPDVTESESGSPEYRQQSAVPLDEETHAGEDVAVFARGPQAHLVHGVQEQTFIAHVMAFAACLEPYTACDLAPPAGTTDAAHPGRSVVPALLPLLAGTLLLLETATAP
Chain of Glyceraldehyde-3-phosphate dehydrogenase (P04406 whole entry): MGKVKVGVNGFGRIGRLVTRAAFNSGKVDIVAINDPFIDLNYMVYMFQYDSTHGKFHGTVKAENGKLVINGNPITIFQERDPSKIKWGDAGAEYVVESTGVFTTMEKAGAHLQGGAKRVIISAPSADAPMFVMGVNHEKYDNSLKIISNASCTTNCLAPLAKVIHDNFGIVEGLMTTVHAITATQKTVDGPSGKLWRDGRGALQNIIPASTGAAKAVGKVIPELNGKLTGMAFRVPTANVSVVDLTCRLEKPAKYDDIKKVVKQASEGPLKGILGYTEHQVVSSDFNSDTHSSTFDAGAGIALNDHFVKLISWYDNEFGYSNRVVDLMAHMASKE
Chain of Paired box protein Pax-8 (Q06710 whole entry): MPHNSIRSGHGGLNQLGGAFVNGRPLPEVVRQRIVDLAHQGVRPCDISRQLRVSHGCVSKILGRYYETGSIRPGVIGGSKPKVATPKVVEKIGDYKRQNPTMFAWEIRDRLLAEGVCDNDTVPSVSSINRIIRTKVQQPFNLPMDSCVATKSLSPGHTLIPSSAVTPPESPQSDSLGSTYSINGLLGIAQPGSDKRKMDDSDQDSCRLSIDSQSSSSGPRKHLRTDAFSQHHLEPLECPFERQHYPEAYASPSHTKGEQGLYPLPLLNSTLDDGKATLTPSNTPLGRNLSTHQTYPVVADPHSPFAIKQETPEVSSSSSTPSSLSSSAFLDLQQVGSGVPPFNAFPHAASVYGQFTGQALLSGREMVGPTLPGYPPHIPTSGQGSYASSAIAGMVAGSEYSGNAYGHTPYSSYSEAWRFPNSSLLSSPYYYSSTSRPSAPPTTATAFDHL

CC(C)(C)OC(=O)N/N=C\c1ccc([N+](=O)[O-])s1
EC50 [1]: > 60 µM (not active)
EC50 [2]: 2.7 µM (active)
EC50 [3]: 2.46 µM (active)
EC50 [4]: > 195 µM (not active)
IC50 (cells): 27.3 µM (active)
EC50 [5]: 2.46 µM (active)

Cc1ccn2c(-c3csc(NCc4ccco4)n3)c(C)nc2c1
IC50 [6]: 8.87 µM (active)
EC50 [7]: 1.5 µM (active)
IC50 [8]: > 50 µM (inactive)

O=c1c(Br)c(Br)cnn1-c1ccccc1
AC50 [9]: 14.8 µM (active)
EC50 [10]: > 79.4 µM (not active)
EC50 [11]: > 79.4 µM (inactive)
AC50 [12]: 1.82 µM (active)
AC50 [13]: 25.4 µM (active)
EC50 [14]: > 79.4 µM (not active)
AC50 (Paired box protein Pax-8): 8.26 µM (active)
CC50 (HeLa): > 11 µM (not active)
AC50 [15]: 2.75 µM (active)

CCn1ncc(/C=N/NC(=O)c2ccc3c(c2)c(C)c(C)n3Cc2ccccc2)c1C
IC50 [16]: > 100 µM (inactive)

CC1(C)CC(=O)c2c(/C=C/c3ccccc3)n[nH]c2C1
IC50 [17]: > 100 µM (not active)
IC50 [18]: > 100 µM (inactive)
IC50 [16]: > 100 µM (inactive)
